In US6380231B1 (priority 1995, dated 2002):

- melting point: 120 °C
Compound: CO/C=C(/C(=O)OC)c1ccccc1COc1ncn(-c2ccccc2Cl)n1 [Compound 12, Methyl α-(2-(N′-(o-chlorophenyl)-triazolyl-3′-oxymethyl)-phenyl)-β-methoxyacrylate]
